These results are taken from PMC10775177, “Application of the C3-Methyltransferase StspM1 for the Synthesis of the Natural Pyrroloindole Motif” (ACS Catalysis, 2023).

The test system of test [1] is T1, StspM1.
T1 construct: recombinant from E. coli BL21 Gold (DE3), Ni-NTA purified
Briefly: MTase-Glo bioluminescence assay (SAH formation), Michaelis-Menten. The class given is biochemical, Streptomyces sp. HPH0547.

Test [2] addresses C3-methyltransferase StspM1 from Streptomyces sp. HPH0547 (Streptomyces sp. HPH0547). Nature of the test: SEC; size exclusion chromatography to determine the oligomerization state; measured weight 70.5 kDa against 61.8 kDa for a dimer. Background: Size exclusion chromatography separates by hydrodynamic size, large species first.

What is called Km is the concentration of substrate that gives half-maximal velocity. For orientation: stoichiometry N means a count of units in the complex or per binding partner.

For `O=C1N[C@H](Cc2c[nH]c3ccccc23)C(=O)N[C@@H]1Cc1c[nH]c2ccccc12` [7b, DD-cWW], the Km in test [1] (first methylation, 1.5 μM enzyme, co-substrate SAM fixed at 50 μM, cWW 0.2-200 μM, compound label misprinted as 7c) turned out to be 14.8 µM.

Regarding “C3-methyltransferase StspM1 from Streptomyces sp. HPH0547 (enzyme)”, the stoichiometry N in test [2] amounted to 2.

Take `O=C1N[C@@H](Cc2c[nH]c3ccccc23)C(=O)N[C@H]1Cc1c[nH]c2ccccc12` [7a, LL-cWW]: the Km in test [1] (first methylation, 1.5 μM enzyme, co-substrate SAM fixed at 50 μM, cWW 0.2-200 μM) came to 3.86 µM.

On to `C[C@@]12C[C@H]3C(=O)N[C@@H](Cc4c[nH]c5ccccc45)C(=O)N3[C@@H]1Nc1ccccc12` [compound 14, single-methylated LL-cWW], for which the Km in test [1] (second methylation step) came to 32.5 µM.
